# Data published in paper PMC8769378, “Underlining the Importance of Peripheral Protic Functional Groups to Enhance the Proton Exchange of Gd-Based MRI Contrast Agents” (Inorganic Chemistry, 2021).
# Where two headings read alike, the source gives them in different places. Marks after values point to notes of the source that are not given here.
# Legend:
# [1] = cited from earlier work
# [2] = Acid-assisted dissociation kinetics of Gd^III complexes followed by ^1H NMR relaxometry; details: calculated from acid-assisted dissociation only, pH = 7.4, 298 K; comparators from literature constants
# From the text: In order to investigate the kinetic inertness of the Gd^III complex, the dissociation reactions of GdL2 were followed by ^1H NMR relaxometry (21 MHz and 298 K) in the presence of large acid excess ([HCl] = 0.01–1.0 M) to guarantee the pseudo-first-order kinetic conditions.
# The kinetic inertness of the GdL2 was characterized by the rates of the dissociation reactions taking place in 0.01–1.0 M HCl solution. The dissociation reactions of the GdL2 were followed by measuring the longitudinal relaxation time of H2O protons (T1) with a Stelar relaxometer connected to a Bruker WP80 NMR electromagnet adapted to variable-field measurements (15–80 MHz proton Larmor frequency). The temperature was controlled with a Stelar VTC-91 airflow heater equipped with a calibrated copper–constantan thermocouple (uncertainty of ±0.1 °C). Measures were carried out at 21 MHz and 25 °C. The longitudinal relaxation time (T1) was measured with the “inversion recovery” method (180° – τ – 90°) by using 16 different τ values with a typical 90° pulse width of 6.5 μs, 4 scans. The measurements were performed with a 1 mM solution of the GdL2 complex. The relaxivity values were given as r1 = 1/T1p + 1/T1w where T1p and T1w are the relaxation times of the bulk water protons in the presence and absence of GdL2. The pseudo-first-order rate constants (kd) were calculated by fitting the relaxation rate (r1 = 1/T1p) data to eq 4. […] 4 where rr and rv are the relaxivity values of the reactants and the product (Gd^3+: r1p = 12.85 (2) mM^–1 s^–1, 21 MHz, 25 °C) and rt is the measured relaxivity at reaction time t. The temperature was maintained at 25 °C, and the ionic strength of the solutions was kept constant at [H^+] ≤ 0.15 M, [HCl] + [NaCl] = 0.15 M. The calculation of the kinetic parameters was performed by the fitting of the absorbance–time and relaxation rate–time data pairs with the Micromath Scientist computer program (version 2.0, Salt Lake City, UT).
# Kinetic inertness of GdL2
# In order to investigate the kinetic inertness of GdL2, the dissociation reactions of GdL2 were followed
# by 1H-NMR relaxometry in the presence of large acid excess ([HCl]= 0.01 – 1.0 M) to guarantee the
# pseudo-first-order kinetic conditions. The R1obs values as a function of time for the dissociation
# In the presence of HCl excess, the dissociation of GdL2 can be treated as a pseudo-first-order process
# and the rate of the reaction can be expressed by Eq. (S7)
# where kd is a pseudo-first-order rate constant, [GdL]t and [GdL]tot are the concentrations of the GdL
# species at time t and the total concentration of the complex, respectively. The rates of the dissociation
# reactions were determined at different concentrations of HCl ([HCl]=0.01 – 1.0 M).
# The proton assisted dissociation
# of GdL2 might occur by the equilibrium formation of a protonated *Gd(H2L2) intermediate (Eq.
# (S8)), which dissociates spontaneously (Eq. (S9)).
# Gd(HL2) + H Gd(H2L2) (S8)
# [3] = cited from earlier work; remark: listed apart in the source
# [4] = cited from earlier work; remark: listed apart in the source
# [5] = cited from earlier work; remark: listed apart in the source
# [6] = Conditional stability constant pGd; type: physicochemical; details: pGd = −log[Gd]free, [Gd^3+] = 1 μM, [L] = 10 μM, pH = 7.4; calculated from the constants
# [7] = cited from earlier work; remark: listed apart in the source
# [8] = parameters: method as in PMID 18963244, doi:10.1016/0020-1693(96)05094-3; details: cited from earlier work
# [9] = cited from earlier work; remark: listed apart in the source
# [10] = cited from earlier work; remark: listed apart in the source
# [11] = Longitudinal relaxivity r1 and relaxivity vs pH profiles; type: physicochemical; details: 21 MHz, 25 °C
# Procedure: The longitudinal relaxivity values (r1) for GdL1 and GdL2, at 20 MHz (0.47 T), 298 K, and pH 7.4, are 4.7 and 5.1 mM^–1 s^–1, respectively. These are typical values of the clinical MRI contrast agents, i.e., low-molecular-weight q = 1 Gd^III chelates that tumble rapidly in solution.[1],[2] In particular, these values compare well with the r1 reported for GdHPDO3A[24] and other HPDO3A-like complexes such as GdHPDO3MA[25] or the series of Gd-hydroxypropylamide-DO3A (HPADO3A, Scheme 1)[7] complexes measured at the same experimental conditions.
# At pH >3, the r1 values of GdL2 decrease with the increase of pH from 6.6 mM^–1 s^–1 to reach a plateau of 5.1 mM^–1 s^–1 around pH = 7.5. A further increase of the pH results in the slight increase of r1 reaching a maximum around pH = 9.5. Finally, at pH >9.5, another small decrease in r1 is observed. On the other hand, in the case of GdL1, the r1 values are independent from the pH in the range 4.0–7.5, whereas at pH >8.0, r1 increases up to 5.2 mM^–1 s^–1. The r1 values of GdL1 were measured in the pH range 4–10 in order to avoid the hydrolysis of the methyl ester. […] Then, the overall relaxivity, r1, is given by eq 1: [drawing 1] 1 where r1^is, r1^os, and r1^pr are the relaxivity components due to the inner and outersphere water molecules and the −OH group, respectively. r1^pr can be expressed as follows:[26]−[28] [drawing 2] 2
# Proton relaxation measurements (1/T1) and the resulting 1/T1 NMRD profiles were measured on a fast-field cycling (FFC) Stelar SmarTracer relaxometer over a continuum of magnetic field strengths from 0.000 24 to 0.25 T (corresponding to 0.01–10 MHz proton Larmor frequencies). The relaxometer operates under computer control with an absolute uncertainty in 1/T1 of ±1%. […] Furthermore, the real temperature inside the probe head was additionally monitored by a Fluke 52 k/j digital thermometer (Fluke, Zürich, Switzerland). The gadolinium concentration was determined by measuring the bulk magnetic susceptibility shifts of the t-BuOH ^1H NMR signal. Additional data in the 20–120 MHz frequency range were obtained with a high field relaxometer (Stelar) equipped with the HTS-110 3T metrology cryogen-free superconducting magnet. […] The pH-dependent relaxivity measurements of GdL1 and GdL2 complexes were carried out by direct titration of the samples (GdL2, 3.0 < pH < 12.5; GdL1, 4 < pH < 10). The pH was adjusted by the stepwise addition of concentrated NaOH or HCl solution. Calculations were performed with the computer program Micromath Scientist, version 2.0 (Salt Lake City, UT).
# [12] = cited from earlier work; for ^298r1-60-MHz: 298 K; for ^310r1-60-MHz: 310 K
# [13] = cited from earlier work; remark: listed apart in the source
# [14] = parameters: method as in PMID 34123071; details: 0.15 M NaCl, 298 K ref 7, cited from earlier work; for ^GdLH–1r1^is+os / ^GdLr1^is+os: 20 MHz
# [15] = 0.15 M NaCl, 25 °C ref [11] (SI)
# [16] = 0.1 M Me4NCl, 25 °C ref [13], [14] (SI)
# [17] = I = 0.1 M Me4NCl, 298 K ref 19, 20
smiles,measurement,setting,value
O=C([O-])CN1CCN(CC(=O)[O-])CCN(CC(=O)[O-])CCN(CC(=O)[O-])CC1.[Gd+3] [GdDOTA],K^HGdL,[1]; 298 K ref 18,14 M^–1
same,k1 (acid-catalyzed dissociation rate constant),[1]; 298 K ref 18,1.8 × 10^–6 M^–1 s^–1
same,kd at pH = 7.4,[2],7.28 × 10^–14 s^–1
O=C(O)CN1CCN(CC(=O)O)CCN(C(CO)C(O)CO)CCN(CC(=O)O)CC1 (stereo not drawn) [BT-DO3A],Gd(L)H–1 (log KGd(L)H-1),"[3]; I = 0.1 M NaCl, 298 K ref 15",9.48
same,ZnHL (log K),"[4]; 0.1 M NaCl, 25 °C ref [5] (SI)",4.3
same,"ZnL (log K, stability constant)","[4]; I = 0.1 M NaCl, 298 K ref 15",17.0
same,"CaL (log K, stability constant)","[5]; I = 0.1 M NaCl, 298 K ref 15",12.1
same,pGd,[6],15.63 ^h
same,CuH2L (log K),"[7]; 0.1 M NaCl, 25 °C ref [5] (SI)",2.4
same,CuHL (log K),"[7]; 0.1 M NaCl, 25 °C ref [5] (SI)",3.8
same,"CuL (log K, stability constant)","[7]; I = 0.1 M NaCl, 298 K ref 15",19.1
same,log KNa(L) (stability of the Na^+ complex),[8],2.32
same,"GdL (log KGdL, stability constant)","[9]; I = 0.1 M NaCl, 298 K ref 15",18.7
same,"GdH2L (log K, *Gd(H2L) out-of-cage intermediate)","[9]; footnote 0.15 M NaCl, 25 °C ref [5] (SI)",4.53
same,log K1^H,"[10]; I = 0.1 M NaCl, 298 K ref 15",9.46
same,log K2^H,"[10]; I = 0.1 M NaCl, 298 K ref 15",9.36
same,log K3^H,"[10]; I = 0.1 M NaCl, 298 K ref 15",4.17
same,log K4^H,"[10]; I = 0.1 M NaCl, 298 K ref 15",3.02
NC(=O)[C@H](O)CN1CCN(CC(=O)O)CCN(CC(=O)O)CCN(CC(=O)O)CC1 [HPADO3A],Gd(L)H–1 (log KGd(L)H-1),"[3]; I = 0.15 M NaCl, 298 K ref 7",6.73
same,Zn(L)H-1 (log K),[4]; [15],10.79 (5)
same,ZnH2L (log K),[4]; [15],2.87
same,ZnHL (log K),[4]; [15],3.67
same,"ZnL (log K, stability constant)","[4]; I = 0.15 M NaCl, 298 K ref 7",17.18
same,Ca(L)H-1 (log K),[5]; [15],11.50
same,CaHL (log K),[5]; [15],4.67
same,"CaL (log K, stability constant)","[5]; I = 0.15 M NaCl, 298 K ref 7",12.13
same,pGd,[6],16.88 ^h
same,Cu(L)H-1 (log K),[7]; [15],10.55
same,CuH2L (log K),[7]; [15],1.24
same,CuHL (log K),[7]; [15],4.00
same,"CuL (log K, stability constant)","[7]; I = 0.15 M NaCl, 298 K ref 7",21.53
same,"GdH2L (log K, *Gd(H2L) out-of-cage intermediate)",[9]; [15],5.72
same,"GdL (log KGdL, stability constant)","[9]; I = 0.15 M NaCl, 298 K ref 7",18.41
same,log K1^H,"[10]; I = 0.15 M NaCl, 298 K ref 7",8.96
same,log K2^H,"[10]; I = 0.15 M NaCl, 298 K ref 7",9.07
same,log K3^H,"[10]; I = 0.15 M NaCl, 298 K ref 7",4.22
same,log K4^H,"[10]; I = 0.15 M NaCl, 298 K ref 7",2.64
same,log K5^H,"[10]; I = 0.15 M NaCl, 298 K ref 7",1.25
O=C(O)CN1CCN(CC(=O)O)CCN(CC(=O)O)CCN(CC(=O)O)CC1 [DOTA],pGd,[6],22.09 ^h
same,log KNa(L) (stability of the Na^+ complex),[8],4.38
same,"GdL (log KGdL, stability constant)","[9]; I = 0.1 M NaCl, 298 K ref 22",24.7
same,"GdH2L (log K, *Gd(H2L) out-of-cage intermediate)","[9]; footnote 0.15 M NaCl, 25 °C ref [16] (SI)",6.07
same,log K1^H,"[10]; I = 0.1 M NaCl, 298 K ref 22",9.37
same,log K2^H,"[10]; I = 0.1 M NaCl, 298 K ref 22",9.14
same,log K3^H,"[10]; I = 0.1 M NaCl, 298 K ref 22",4.63
same,log K4^H,"[10]; I = 0.1 M NaCl, 298 K ref 22",3.91
"CC(O)CN1CCN(CC(=O)O)CCN(CC(=O)O)CCN(CC(=O)O)CC1 (stereo not drawn) [HPDO3A, 10-(2-hydroxypropyl)-1,4,7,10-tetraazacyclododecane-1,4,7-triacetic acid]",ZnHL (log K),[4]; [16],3.7
same,"ZnL (log K, stability constant)",[4]; [17],19.37
same,"CaL (log K, stability constant)",[5]; [17],14.83
same,pGd,[6],18.16 ^h
same,CuH2L (log K),[7]; [16],2.3
same,CuHL (log K),[7]; [16],3.72
same,"CuL (log K, stability constant)",[7]; [17],22.84
same,"GdL (log KGdL, stability constant)",[9]; [17],23.8
same,"GdH2L (log K, *Gd(H2L) out-of-cage intermediate)","[9]; footnote 0.15 M NaCl, 25 °C ref [13], [14] (SI)",5.10
same,log K1^H,[10]; [17],11.96
same,log K2^H,[10]; [17],9.43
same,log K3^H,[10]; [17],4.30
same,log K4^H,[10]; [17],3.26
[Gd+3] [Gd^3+],r1p,[11],12.85 (2) mM^–1 s^–1
CC(O)CN1CCN(CC(=O)[O-])CCN(CC(=O)[O-])CCN(CC(=O)[O-])CC1.[Gd+3] (stereo not drawn) [GdHPDO3A],^298r1-60-MHz,[12]; 60 MHz ref 24,4.2 mM^–1 s^–1
same,^310r1-60-MHz,[12]; 60 MHz ref 24,3.2 mM^–1 s^–1
same,Δ^2,[12]; SAP isomer ref 24,9.9 10^19 s^–2
same,τM,[12]; SAP isomer ref 24,640 ns
same,τv,[12]; SAP isomer ref 24,8 ps
same,Δ^2,[12]; TSAP isomer ref 24,1.5 10^19 s^–2
same,τM,[12]; TSAP isomer ref 24,8.5 ns
same,τv,[12]; TSAP isomer ref 24,30 ps
same,τR,[12],65 ps
same,k1 (acid-catalyzed dissociation rate constant),[1]; 298 K ref 18,2.9 × 10^–4 M^–1 s^–1
same,Δr1 (base-catalyzed proton exchange contribution to r1),[13]; pH > 10 ref 5,1.2 mM^–1 s^–1
same,kOH × 10^–10,[14],1.0 M^–1 s^–1
same,^GdLH–1r1^is+os,[14],4.54 mM^–1 s^–1
same,^GdLr1^is+os,[14],4.28 mM^–1 s^–1
same,kd at pH = 7.4,[2],1.15 × 10^–11 s^–1
O=C([O-])CN1CCN(CC(=O)[O-])CCN(C(CO)C(O)CO)CCN(CC(=O)[O-])CC1.[Gd+3] (stereo not drawn) [GdBT-DO3A],k1 (acid-catalyzed dissociation rate constant),[1]; 298 K ref 15,2.8 × 10^–5 M^–1 s^–1
same,kd at pH = 7.4,[2],1.35 × 10^–12 s^–1
NC(=O)[C@H](O)CN1CCN(CC(=O)[O-])CCN(CC(=O)[O-])CCN(CC(=O)[O-])CC1.[Gd+3] [GdHPADO3A],^298r1-60-MHz,[12]; 60 MHz ref 7,3.6 mM^–1 s^–1
same,^310r1-60-MHz,[12]; 60 MHz ref 7,2.9 mM^–1 s^–1
same,Δ^2,[12],8.5 10^19 s^–2
same,τR,[12],62 ps
same,τv,[12],14 ps
same,τR(SS),[12]; determined for qSS = 2 and rSF = 3.5 Å ref 7,13
same,τM,[12]; pH 7 ref 7,20 ns
same,k1 (acid-catalyzed dissociation rate constant),[1]; 298 K ref 7,1.6 × 10^–4 M^–1 s^–1
same,Δr1 (relaxivity increase),[13]; from pH 7.4 to 5 ref 7,5.5 mM^–1 s^–1
same,kH × 10^–11,[14],2.1 M^–1 s^–1
same,^GdLH–1r1^is+os,[14],4.32 mM^–1 s^–1
same,^GdLr1^is+os,[14],4.57 mM^–1 s^–1
same,kd at pH = 7.4,[2],6.41 × 10^–12 s^–1
